# Experimental data: patent US11484608B2, “Non-invasive assessment of hepatic mitochondrial metabolism by positional isotopomer NMR tracer analysis (PINTA)” (YALE UNIVERSITY, priority 2017, dated 2022)
# Like-named read-outs stand apart in the source and are kept apart here.
# Experiments:
# [1] = system: hepatic mitochondrial fluxes (VPC, VCS); test: PINTA / ex vivo NMR tracer study in rats infused with [3-^13C]lactate and [3-^3H]glucose (Example 1); conditions: for VPDH/VCS (%) / VPK+ME/VPC+PDH (%): rat liver; for VPDH/VCS (%) / VPK+ME/VPC+PDH (%) / VPC/VEGP (%): 120 min [3-^13C]lactate infusion, mean ± S.E.M.; for VPC/VEGP (%): rats
# Text: Male Sprague-Dawley rats (˜10 weeks of age) were ordered from Charles River (Wilmington, Mass.) at ˜300 g and fed regular chow unless otherwise specified. […] Prior to studies, rats underwent surgery under general isoflurane anesthesia to place polyethylene catheters in the jugular vein and common carotid artery (PE90 and PE50 tubing, respectively; Instech, Plymouth Meeting, Pa.). After 1 week, recovery was verified by confirming that the rats had regained their surgical weight. Unless otherwise specified, all experiments were performed following an overnight fast (16 hrs food withdrawal prior to sacrifice). In both the rodent and human studies, data are represented as the mean of two technical replicates for each subject (i.e. two technical replicates per biological replicate). Sample sizes were selected to give power to detect moderate to large differences between groups (n=5-6 per group), and all animals were included in the final analysis.
# The investigator performing the animal studies was not blinded for practical reasons, but the investigators analyzing fluxes were blinded as to the group allocation.
# The flux calculations required the following equations using [^13C] glucose positional enrichment in plasma or liver, determined by NMR and GC/MS mass spectrometry. VPC is the rate of pyruvate carboxylase flux as determined from the anaplerotic flow into oxaloacetate (OAA). VCS is defined as the flux of the citrate synthase reaction in the citric acid cycle. […] G2 denotes [m+2] glucose arising from the condensation of two singly-labeled trioses.
# GC/MS was used to measure m+1 and m+2 [^13C]glucose enrichment. The total m+1 and m+2 [^13C]glucose enrichment was measured using a pentaacetate derivative: plasma or liver samples were deproteinized using 5 volumes of methanol, dried, and derivatized with 75 μL of 1:1 acetic anhydride:pyridine. After heating to 65° C. for 20 min, the reaction was terminated by adding 25 μL methanol, and m+1 and m+2 (as well as m+3 . . . m+6) were determined by GC/MS (CI mode, m/z 331 [m], 332 [m+1], 333 [m+2], . . . 337 [m+6]). The m+1 and m+2 [^13C] enrichments of the glucose C4C5C6 fragment were determined by generating the aldonitrile pentapropionate derivative: plasma or NMR liver extract samples were dried under N2 gas, and 50 μl hydroxylamine hydrochloride (20 mg/ml in pyridine) were added. The samples were heated at 90° C. for 60 min, then 100 μl propionic anhydride was added, after which the samples were heated at 60° C. for 30 min. Finally, the samples were evaporated under N2 gas, resuspended in ethyl acetate, and the m+1 and m+2 enrichment of the glucose C4C5C6 fragment was measured by GC/MS.
# [^13C]alanine enrichment was measured by GC/MS. [^13C] NMR spectroscopy using the BRUKER TOPSPIN® system was utilized to measure relative positional 13C-enrichment of glucose, and combined with the total [^13C]glucose enrichment ([m+1]+2*[m+2]) measured by GC/MS to calculate the positional enrichment of [13C]glucose.
# Total [^13C]glutamate enrichment was determined by LC-MS/MS. Approximately 100 mg of liver tissue was weighed out and homogenized in 500 μl ice-cold methanol using a TissueLyser, then centrifuged at 4000 rpm for 10 minutes. The supernatant was then purified by centrifugation (4000 rpm, 10 min) through the PALL NANOSEP® filter (100K) (Port Washington, N.Y.). Glutamate 13C enrichment ([m+1], [m+2]) was then assessed by LC-MS/MS using an AB SCIEX QTRAP 6500 (Framingham, Mass.), equipped with a SHIMADZU ultra-fast liquid chromatography (UFLC) system (Columbia, Md.) and electrospray ionization (ESI) source with negative-ion detection. The measured ion pairs were 146/128 (m0), 147/129 (m+1), and 148/130 (m+2).
# Positional enrichment of glucose, glutamate, and alanine was measured by 13C NMR.
# [2] = system: primary mouse hepatocytes; test: In vitro glucose production, VPC and lipolysis in isolated hepatocytes; format: cell-based; conditions: isolated hepatocytes, 1 mM hydroxymalonate
# Experimental: For in vitro glucose production and lipolysis studies, primary mouse hepatocytes were isolated by the Yale Liver Center. Following removal of cell debris by Percoll density gradient centrifugation, cells were plated on 6-well collagen-I coated dishes (4.0×10^5 cells/well) in 2 ml recovery media (DMEM High Glucose containing 10% FBS, 2% penicillin-streptomycin, 100 nM dexamethasone, 1 nM insulin, and 10 mM HEPES). After incubation for 6 hr at 37° C. and 5% CO2, the attached cells were washed once in 1×PBS and then incubated overnight in 2 ml Low Glucose Culture Media (DMEM Low Glucose supplemented with 10% FBS, 2% penicillin-streptomycin and 10 mM HEPES for glucose production studies) or Serum Free Low Glucose Culture Media (DMEM Low Glucose supplemented with 0.5% fatty acid free BSA, 2% penicillin-streptomycin and 10 mM HEPES for lipolysis assays). […] After incubation for 8 hr at 37° C. and 5% CO2, cell culture media was collected for analysis of glucose, NEFA, and glycerol concentrations as described above. VPC was determined by measuring VPC/VEGP by PINTA as described above using 300 μL of the collected media, and multiplying this ratio by the measured glucose production rate. In a subset of studies, cells were incubated for 8 hr during the glucose production assay in media containing one of the following agents (all dissolved in 0.5% DMSO), or 0.5% DMSO vehicle: 20 μM ET-18-OCH3 (Santa Cruz), 100 μM U-73122 (Sigma), 30 nM thapsigargin (Sigma), 100 nM vasopressin (Sigma) 50 μM 2-APB (R&D Systems), 70 μM caffeine (Sigma), 1 mM malic enzyme inhibitor hydroxymalonate (Sigma). To inhibit PKA, hepatocytes were incubated in H-89 […] hydrate (Sigma, 25 μM) dissolved in media, or media lacking H-89 as a control. In the insulin treatment studies, hepatocytes were incubated in 1 nM insulin with 5% BSA and glucose production media for the duration of the glucose production assay. In the in vitro atglistatin study, hepatocytes were incubated in 10 μM atglistatin in 0.1% EtOH, or 0.1% EtOH vehicle. All values were normalized to total protein content determined from whole-cell lysates by a BCA protein assay (Thermo Fisher Scientific) according to the manufacturer's instructions and expressed as fold change verses vehicle-treated cells.
# [3] = system: HPA axis, WAT lipolysis, endogenous glucose production; test: Leptin dose-response in streptozotocin-induced type 1 diabetic rats; format: in vivo, rat; conditions: T1D rats
# Text: Male Sprague-Dawley rats were ordered from Charles River Laboratories (Wilmington, Mass.) at ˜250 g and were group housed (3 per cage) for 1-2 weeks until they underwent surgery under general isoflurane anesthesia for placement of polyethylene catheters in the common carotid artery (PE50 tubing, Instech Solomon, Plymouth Meeting, Pa.), and the jugular vein (PE90 tubing, Instech), and/or the portal vein (PE50 tubing, Instech), after which they were singly housed until sacrifice. Unless otherwise specified, rats were fed a regular chow diet (Harlan Teklad #2018, Indianapolis, Ind.) throughout, and fasted as described below. […] In order to induce T1D, rats were injected with streptozotocin (65 mg/kg IP, Sigma Aldrich, St. Louis, Mo.) 24 hr prior to the start of a leptin infusion study and were fasted overnight 12 hr after streptozotocin injection.
# In order to examine the physiologic impact of varying doses of leptin on glucose, hormones, and lipolysis, rats were infused with stepwise increasing doses of leptin during a continuous infusion of [1,2,3,4,5,6,6-^2H7]glucose, [U-^13C16]palmitate, [1,1,2,3,3-^2H5] glycerol, and [U-^13C4] β-hydroxybutyrate starting at hour 42 of a 48 hr fast. From 42-43.5 hr of the fast rats were infused with tracer only, from hours 43.5-45 they were infused with 20 pmol/(kg-min) leptin, from hours 45-46.5 they were infused with 60 pmol/(kg-min) leptin, and from 46.5-48 hr the infusion rate was 600 pmol/(kg-min). Blood samples were taken at 43.5, 45, 46.5, and 48 hr for measurement of substrate/hormone concentrations and turnover of each tracer, as described below. In the T1D leptin dose response studies, overnight (12 hr) fasted rats were infused with stepwise increasing dose of leptin during the same tracer infusion as described above. From 12-14 hr of the fast rats were infused with tracer only, from 14-16 hr they were infused with 50 pmol/(kg-min) leptin, and from hours 16-18 they were infused with 600 pmol/(kg-min) leptin. Blood samples were taken at 14, 16, and 18 hr of the fast for measurement of substrate/hormone concentrations and turnover of each tracer, as described below.
# [4] = system: HPA axis, WAT lipolysis, and hepatic gluconeogenesis; format: in vivo, rat
# Experimental: Blood samples were taken at 14, 16, and 18 hr of the fast for measurement of substrate/hormone concentrations and turnover of each tracer, as described below. […] Liver and muscle glycogen concentrations were assessed using amyloglucosidase digestion. Liver TAG content was measured using the method of Bligh and Dyer (Bligh and Dyer, Can. J. Biochem. Physiol. 37, 911-917, 1959): lipids were extracted from livers using 2:1 chloroform:methanol, and the Sekisui triglyceride-SL reagent was used to measure triglyceride content spectrophotometrically. Liver and muscle DAG content and liver acetyl- and malonyl-CoA concentrations were measured by LC-MS/MS as described by Yu and Perry (Yu, et al. J. Biol. Chem. 2002, 277, 50230-50236; Perry, et al., J. Clin. Invest. 2017, 127, 657-669). […] The samples were homogenized in […] ice-cold methanol using a TissueLyser and filtered through a Nanosep filter. LC-MS/MS (AbSCIEX 6500 QTRAP with a Shimadzu ultrafast liquid chromatography system, negative ion mode) was again used to monitor the relevant ion pairs: succinate and [^13C4]succinate, 117/99 and 121/103, respectively; malate and [^13C4]malate, 133/115 and 137/119, respectively; and citrate and [13C6]citrate, 191/173 and 197/179, respectively. […] Hepatic PKCε translocation, gluconeogenic enzyme protein expression, ApoB (antibody from Meridian Life Science, Memphis, Tenn.), and PGC1α (antibody from Santa Cruz Biotechnology, Dallas, Tex.) protein expression were assessed by western blot. Expression of each of these proteins was normalized to GAPDH.
# [5] = supraphysiologic leptin (˜1300 pM)
# [6] = supraphysiologic leptin treatment
compound,measurement,setting,value
"CNC[C@H](O)c1ccc(O)c(O)c1 [Epinephrine, epinephrine]",VPDH/VCS (%),[1],4.3 ± 1.0%
same,VPK+ME/VPC+PDH (%),[1],5.4 ± 0.1%
same,VPC/VEGP (%),[1],67 ± 2%
"O=C(O)C(O)C(=O)O [ME inhibitor, hydroxymalonate]",basal or glucagon-stimulated glucose production or VPC,[2],no impact
same,VPDH/VCS (%),[1],2.0 ± 1.1%
same,VPK+ME/VPC+PDH (%),[1],7.9 ± 2.1%
same,VPC/VEGP (%),[1],50 ± 2%
[13CH3]C(O)C(=O)O (stereo not shown) [[3-^13C]lactate],plasma lactate enrichment,[1]; rats infused with 40 μmol/(kg-min),~45%
leptin: leptin hormone infused at stepwise increasing doses,HPA axis activity,[3]; both doses,suppressed
same,WAT lipolysis,[3]; leptin ˜60 pM,suppression
same,suppression of WAT lipolysis,[3]; leptin ˜1300 pM,abrogated
same,plasma glucose concentrations and endogenous glucose production rates,[3]; physiologic leptin replacement (˜60 pM),marked reduction
same,growth hormone concentrations,[3]; supraphysiologic leptin,without any change
same,increase in plasma catecholamine concentrations,[3]; [5],4 fold
same,plasma glucose concentrations and endogenous glucose production,[3]; [5],increases
same,plasma FGF-21 concentrations,[4]; 48-hr fasted rats,dose-dependent reduction
same,plasma growth hormone concentrations,[4]; 48-hr fasted rats,no difference
same,plasma corticosterone,[4]; all three infusion rates,suppressed
same,plasma insulin concentrations,[4]; highest dose,increased
same,increase in plasma epinephrine and norepinephrine concentrations,[4]; highest infusion rate,2- to 3 fold
same,fatty acid and glycerol turnover,[4]; physiologic leptin replacement,suppressed
same,"plasma NEFA, glycerol, β-hydroxybutyrate, and lactate concentrations",[4]; physiologic leptin replacement,suppression
same,hepatic glucose production,[4]; plasma leptin ˜60 pM,lowered
same,plasma glucose concentrations,[4]; plasma leptin ˜60 pM,lowered
same,plasma glucose concentrations and hepatic glucose production,[4]; plasma leptin ˜150 pM and ˜1250 pM,unable to lower
same,"plasma NEFA, glycerol, β-hydroxybutyrate, and lactate concentrations",[4]; supraphysiologic leptin infusions,increases
same,fatty acid and glycerol turnover,[4]; [6],increased
same,hepatic acetyl-CoA content and β-hydroxybutyrate turnover,[4]; [6],increases
